Experiment [1] addresses glutamate dehydrogenase (GDH). The experiment can be described thus: 2,4-DNPH oxidative deamination assay with GDH. The class given is biochemical, thermophilic bacterium species. The conditions noted are these: 0.25 μM GDH; for IC50: 5 mM L-glutamate, 2.5 mM NAD^+, brackets 95% confidence interval. On the procedure:
Next, we selected two reported GDH inhibitors to assess their IC50 values using the 2,4-DNPH α-KG assay. For these experiments, we held glutamate and NAD^+ at saturating concentrations of 5 mM and 2.5 mM, respectively, while varying the concentrations of inhibitors. Hexachlorophene (HCP) is a noncompetitive inhibitor of GDH that binds to the inner core of the GDH hexamer, thereby preventing the conformational changes necessary for catalytic turnover ([60]). […] Conversely, 2-Methyleneglutarate (2-MG) was selected as a nonaromatic, competitive inhibitor of GDH with respect to L-glutamate ([61]).
Lyophilized GDH was resuspended in a solution of 50 mM Tris-base buffer (pH 8.0) and […]. Each oxidative deamination reaction was carried out in a final volume of 0.5 ml. The cofactor mix was prepared with 50 mM Tris-base buffer (pH 8.0), 1 mM EDTA, 5 mM L-glutamate and 2.5 mM NAD^+ and commenced by adding 0.25 μM GDH. The reaction was allowed to proceed at 50 °C for up to 30 min. During the course of the reaction, 50 μl was withdrawn at various time points from the reaction tube and quenched in 50 μl of 10% TCA at predetermined time points and vortexed. The downstream processing steps are identical to those of the 2,4-DNPH α-KG assay.
(§1) Subsequent measurements were performing at time points conforming to those requirements. Initial velocities at each substrate concentration were fit using linear regression to generate Michaelis–Menten titration curves.
(§2) All data were plotted using GraphPad Prism 8.0 and presented as a mean ± standard deviation of three independent biological replicates, unless otherwise stated. For kinetic data, Km was determined by fitting the data to a least squares ordinary fit Michealis–Menten function, while IC50 values were obtained from fitting the data to a three-parameter log(inhibitor) versus response function. Where applicable, two-tailed t tests were performed to determine statistical significance using a p-value of 0.05.

The target in experiment [2] is PHD2_181-426 (Homo sapiens, UniProt Q9GZT9). The experiment can be described thus: 2,4-DNPH α-KG assay with PHD2. How it is done:
(§3) During the course of the reaction, 50 μl was withdrawn at various time points from the reaction tube and quenched in 50 μl of 10% TCA at predetermined time points and vortexed.
as §1, §2

Experiment [3] concerns the target PHD3 (Homo sapiens, UniProt Q9H6Z9). The experiment in a line: 2,4-DNPH α-KG assay with PHD3. On the procedure:
as §3, §1, §2

For experiment [4], the system named is PHD3. The conditions noted are these: read-out: Km (app; α-KG), cited from earlier work.
Experiment [5] deals with PHD2. The conditions noted are these: read-out: Km (app; α-KG), cited from earlier work.

Read-outs that look alike come from different tables or passages of the source.

Chain of PHD3 (Homo sapiens, UniProt Q9H6Z9) (Q9H6Z9 whole entry): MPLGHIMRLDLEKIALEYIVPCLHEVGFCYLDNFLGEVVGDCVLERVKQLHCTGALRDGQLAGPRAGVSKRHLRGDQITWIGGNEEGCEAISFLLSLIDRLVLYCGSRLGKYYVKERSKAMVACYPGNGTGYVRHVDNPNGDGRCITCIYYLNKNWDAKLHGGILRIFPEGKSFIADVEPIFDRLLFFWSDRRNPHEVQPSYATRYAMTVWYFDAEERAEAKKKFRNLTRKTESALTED
Chain of PHD2_181-426 (Q9GZT9 181-426): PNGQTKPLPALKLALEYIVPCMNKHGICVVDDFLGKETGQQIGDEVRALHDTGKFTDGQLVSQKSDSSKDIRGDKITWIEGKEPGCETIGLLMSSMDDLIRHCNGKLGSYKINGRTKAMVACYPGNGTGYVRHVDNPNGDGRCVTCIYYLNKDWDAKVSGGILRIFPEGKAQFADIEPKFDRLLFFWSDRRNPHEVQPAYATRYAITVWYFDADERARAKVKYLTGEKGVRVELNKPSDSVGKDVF

`C=C(CCC(=O)O)C(=O)O` [2-MG, 2-methyleneglutaric acid, reference compound]: the IC50 in experiment [1] and in experiment [1] (listed as 2-Methyleneglutarate (2-MG)) was 24.9 µM throughout.
With `[Cl-].[Cl-].[Co+2]` [CoCl2, cobalt (II) chloride, reference compound], the IC50 (usually the concentration needed to halve the response being measured) came out at 6.4 µM in experiment [2] and 79.3 µM in experiment [3] (0.5 mM α-ketoglutarate, 100 μM HIF peptide, 10 μM PHD3, brackets 95% confidence interval).
On to `Oc1c(Cl)cc(Cl)c(Cl)c1Cc1c(O)c(Cl)cc(Cl)c1Cl` [HCP, Hexachlorophene, reference compound], for which the midpoint of inhibition in experiment [1], the IC50, lay at 1.52 µM.
With `NC(=O)c1ccc[n+]([C@@H]2O[C@H](COP(=O)([O-])OP(=O)(O)OC[C@H]3O[C@@H](n4cnc5c(N)ncnc54)[C@H](O)[C@@H]3O)[C@@H](O)[C@H]2O)c1` [NAD^+, nicotinamide adenine dinucleotide], the “kcat for NAD^+” value in experiment [1] (increasing NAD^+, saturating other reagents) amounted to 4.2 ± 0.13 s⁻¹. In experiment [1] (increasing NAD^+, saturating other reagents, read-out: Km for NAD^+), the Michaelis-Menten constant (Km) – broadly, the substrate concentration at which the rate is half of its maximum – was 517 ± 55.8 µM.
For `O=C(O)CNC(=O)C(=O)O` [NOG, N-oxalylglycine], 51.3 µM corresponded to half-maximal inhibition in experiment [3] (IC50).
On to `N[C@@H](CCC(=O)O)C(=O)O` [glutamate, L-glutamate], for which the kcat for glutamate in experiment [1] (increasing L-glutamate, saturating other reagents) came out at 4.47 ± 0.067 s⁻¹. In experiment [1] (increasing L-glutamate, saturating other reagents, read-out: Km for glutamate), the Michaelis constant (Km) is 746 ± 58.6 µM.
Consider `O=C(O)CCC(=O)C(=O)O` [α-ketoglutarate], for which the “kcat (α-ketoglutarate titration)” value in experiment [2] was 0.0717 ± 0.005 s⁻¹. Besides, the Km is 55 µM in experiment [4] (ref Hirsila et al. ([2])); 12 ± 4 µM in experiment [4] (ref Koivunen et al. ([51])); 3 µM in experiment [4] (ref Oehme et al. ([25])); 0.343 ± 0.028 µM in experiment [5] (PHD2, ref Dao et al. ([52])); 60 µM in experiment [5] (PHD2, ref Hirsila et al. ([2])); 1 ± 0.2 µM in experiment [5] (PHD2, ref Koivunen et al. ([51])). Besides, the Km was 55 ± 1.1 µM in experiment [5] (PHD2^181–426, ref Ehrismann et al. ([11])); 25 ± 6 µM in experiment [5] (PHD2^181–426, ref McNeill et al. ([10])); 13 ± 2 µM in experiment [5] (PHD2^181–426, ref Tarhonskaya et al. ([19])).

(Values after paper PMC7961094 (The Journal of Biological Chemistry, 2021).)
